Reference: US9586978B2, “Anti-viral compounds” (AbbVie Inc., priority 2009, dated 2017)
Where two headings read alike, the source gives them in different places.

Legend:
[1] = system: HCV 1a replicon L31M, Y93H or Y93N mutant; assay: HCV 1a replicon assays in the presence of 40% HP, mutants; type: cell-based; conditions: versus Example 109 of the '301 application
[2] = AUC value (as defined above); type: in vivo
HCV genotype 3a replicon = HCV genotype 3a replicon assay; type: cell-based, Hepatitis C virus
Excerpt: (§1) [drawing 14] employs a biphenyl linker between the imidazole moieties. See WO2008021927(BMS). The EC50 values of BMS-790052 against different HCV genotypes were shown by Nettles et al., “BMS-790052 is a First-in-class Potent Hepatitis C Virus (HCV) NS5A Inhibitor for Patients with Chronic HCV Infection: Results from a Proof-of-concept Study”, 59th Annual Meeting of the American Association for the Study of Liver Diseases (Oct. 31-Nov. 1, 2008, San Francisco, Calif.; www.natap.org/2008/AASLD/AASLD_06.htm). […] See also Gao et al., NATURE 465:96-100 (2010). The compounds in Table 1 use different linkers between the imidazole moieties. Table 1 depicts the EC50 values of these compounds when tested using respective replicon assays in the presence of 5% (v/v) fetal bovine serum (FBS).

HCV genotype 6a replicon = HCV genotype 6a replicon assay; type: cell-based, Hepatitis C virus
Excerpt: as §1

HCV genotype 2a replicon = HCV genotype 2a replicon assay; type: cell-based, Hepatitis C virus
Excerpt: as §1

HCV genotype 2b replicon = HCV genotype 2b replicon assay; type: cell-based, Hepatitis C virus
Excerpt: as §1

HCV genotype 5a replicon = HCV genotype 5a replicon assay; type: cell-based, Hepatitis C virus; conditions: replicon assay in the presence of 5% (v/v) FBS
Excerpt: as §1

HCV genotype 1a replicon = HCV genotype 1a replicon assay; type: cell-based, Hepatitis C virus
Excerpt: as §1
(§2) Table 2 compares compounds containing unsubstituted benzimidazole to those containing halo-substituted benzimidazole. Anti-viral activities were assessed using wild-type replicons (e.g., 1b WT or 1a WT) as well as replicons containing specific NS5A mutations (e.g., 1b L28T, 1b Y93H, 1a L31V, 1a Y93C, 1a M28V, or 1a Q30E) in the absence of FBS.
(§3) Table 3 compares compounds with different linkers between the benzimidazole moieties. Anti-viral activities were determined using 1a and 1b replicon assays. “HP” refers to human plasma. […] As compared to the phenyl linker

HCV genotype 4a replicon = HCV genotype 4a replicon assay; type: cell-based, Hepatitis C virus
Excerpt: as §1

HCV genotype 1b replicon = HCV genotype 1b replicon assay; type: cell-based, Hepatitis C virus
Excerpt: as §1, §2, §3

HCV genotype 3a = conditions: observed by Nettles et al.; read-out: EC50 against HCV genotype 3a; cited from earlier work
HCV genotype 1a = conditions: observed by Nettles et al.; read-out: EC50 against HCV genotype 1a; cited from earlier work
HCV genotype 4a = conditions: observed by Nettles et al.; read-out: EC50 against HCV genotype 4a; cited from earlier work
HCV genotype 1b = conditions: observed by Nettles et al.; read-out: EC50 against HCV genotype 1b; cited from earlier work
HCV genotype 5a = conditions: observed by Nettles et al.; read-out: EC50 against HCV genotype 5a; cited from earlier work
different HCV genotypes = conditions: summary over genotypes, see Nettles et al.; cited from earlier work
[3] = system: HCV 2a, 2b, 3a and 4a replicon; assay: HCV 2a, 2b, 3a and 4a replicon assays in the absence of human plasma; type: cell-based; conditions: 3a and 4a replicons, absence of HP, versus Example 4.25
Experimental: The inhibitory effects of the compounds of the invention on HCV replication can be determined by measuring activity of the luciferase reporter gene. For example, replicon-containing cells can be seeded into 96 well plates at a density of 5000 cells per well in 100 μl DMEM containing 5% FBS. The following day compounds can be diluted in dimethyl sulfoxide (DMSO) to generate a 200× stock in a series of eight half-log dilutions. The dilution series can then be further diluted 100-fold in the medium containing 5% FBS. Medium with the inhibitor is added to the overnight cell culture plates already containing 100 μl of DMEM with 5% FBS. In assays measuring inhibitory activity in the presence of human plasma, the medium from the overnight cell culture plates can be replaced with DMEM containing 40% human plasma and 5% FBS. The cells can be incubated for three days in the tissue culture incubators after which time 30 μl of Passive Lysis buffer (Promega) can be added to each well, and then the plates are incubated for 15 minutes with rocking to lyse the cells. Luciferin solution (100 μl, Promega) can be added to each well, and luciferase activity can be measured with a Victor II luminometer (Perkin-Elmer). The percent inhibition of HCV RNA replication can be calculated for each compound concentration and the EC50 value can be calculated using nonlinear regression curve fitting to the 4-parameter logistic equation and GraphPad Prism 4 software.

[4] = system: HCV 1b replicon containing NS5A mutation Y93H; assay: HCV 1b Y93H replicon assay; type: cell-based, Hepatitis C virus; conditions: transient transfection assays
Experimental: as §2

[5] = read-out: EC50 (nM) 3a, replicon assay in the presence of 5% (v/v) FBS
[6] = read-out: EC50 (nM) 6a, replicon assay in the presence of 5% (v/v) FBS
[7] = replicon assay in the presence of 5% (v/v) FBS, read-out: EC50 (nM) 2a
[8] = replicon assay in the presence of 5% (v/v) FBS, read-out: EC50 (nM) 2b
[9] = replicon assay in the presence of 5% (v/v) FBS, read-out: EC50 (nM) 1a
[10] = replicon assay in the presence of 5% (v/v) FBS, read-out: EC50 (nM) 4a
[11] = replicon assay in the presence of 5% (v/v) FBS, read-out: EC50 (nM) 1b

SMILES: COC(=O)N[C@H](C(=O)N1CCC[C@H]1c1nc2cc([C@H]3CC[C@H](c4cc5[nH]c([C@@H]6CCCN6C(=O)[C@@H](NC(=O)OC)C(C)C)nc5cc4F)N3c3ccc(C(C)(C)C)cc3)c(F)cc2[nH]1)C(C)C [Example 6.1, methyl{(2S)-1-[(2S)-2-{5-[(2R,5R)-1-(4-tert-butylphenyl)-5-{5-fluoro-2-[(2S)-1-{(2S)-2-[(methoxycarbonyl)amino]-3-methylbutanoyl}pyrrolidin-2-yl]-1H-benzimidazol-6-yl}pyrrolidin-2-yl]-6-fluoro-1H-benzimidazol-2-yl}pyrrolidin-1-yl]-3-methyl-1-oxobutan-2-yl}carbamate]
- EC50 value, fold less than that of Example 109 of the '301 application [1]: at least 5 fold
- AUC value, fold greater than that of Example 109 of the '301 application ([2]; versus Example 109 of the '301 application): about 9 fold

SMILES: COC(=O)N[C@H](C(=O)N1CCC[C@H]1c1ncc(-c2ccc(C3CCC(c4cnc([C@@H]5CCCN5C(=O)[C@@H](NC(=O)OC)C(C)C)[nH]4)CC3)cc2)[nH]1)C(C)C (single isomer, unassigned) [drawing 18]
- EC50 (HCV genotype 3a replicon; [5]): > 10 nM
- EC50 (HCV genotype 6a replicon; [6]): > 10 nM
- EC50 (HCV genotype 2a replicon; [7]): > 100 nM
- EC50 (HCV genotype 2b replicon; [8]): > 10 nM
- EC50 (HCV genotype 5a replicon): > 10 nM
- EC50 (HCV genotype 1a replicon; [9]): > 10 nM
- EC50 (HCV genotype 4a replicon; [10]): 4 nM
- EC50 (HCV genotype 1b replicon; [11]): 8.5 nM

SMILES: COC(=O)N[C@H](C(=O)N1CCC[C@H]1c1ncc(C2=CCC(c3ccc(-c4cnc([C@@H]5CCCN5C(=O)[C@@H](NC(=O)OC)C(C)C)[nH]4)cc3)CC2)[nH]1)C(C)C (some centres unmarked)
- EC50 (HCV genotype 3a replicon; Hepatitis C virus, read-out: EC50 (nM) 3a, replicon assay in the presence of 5% (v/v) FBS): 1.5 nM
- EC50 (HCV genotype 6a replicon; Hepatitis C virus, read-out: EC50 (nM) 6a, replicon assay in the presence of 5% (v/v) FBS): 0.5 nM
- EC50 (HCV genotype 2a replicon; Hepatitis C virus, replicon assay in the presence of 5% (v/v) FBS, read-out: EC50 (nM) 2a): 16 nM
- EC50 (HCV genotype 2b replicon; Hepatitis C virus, replicon assay in the presence of 5% (v/v) FBS, read-out: EC50 (nM) 2b): 0.09 nM
- EC50 (HCV genotype 5a replicon; Hepatitis C virus): 0.05 nM
- EC50 (HCV genotype 1a replicon; Hepatitis C virus, replicon assay in the presence of 5% (v/v) FBS, read-out: EC50 (nM) 1a): 0.12 nM
- EC50 (HCV genotype 4a replicon; Hepatitis C virus, replicon assay in the presence of 5% (v/v) FBS, read-out: EC50 (nM) 4a): 0.03 nM
- EC50 (HCV genotype 1b replicon; Hepatitis C virus, replicon assay in the presence of 5% (v/v) FBS, read-out: EC50 (nM) 1b): 0.03 nM

SMILES: COC(=O)N[C@H](C(=O)N1CCC[C@H]1c1ncc(-c2ccc(-c3ccc(-c4cnc([C@@H]5CCCN5C(=O)[C@@H](NC(=O)OC)C(C)C)[nH]4)cc3)cc2)[nH]1)C(C)C [BMS-790052]
- EC50 (HCV genotype 3a): 0.127 nM
- EC50 (HCV genotype 1a): 0.05 nM
- EC50 (HCV genotype 4a): 0.012 nM
- EC50 (HCV genotype 1b): 0.009 nM
- EC50 (HCV genotype 5a): 0.033 nM
- EC50 (different HCV genotypes): ≤ 0.2 nM

SMILES: COC(=O)N[C@H](C(=O)N1CCC[C@H]1c1ncc(-c2ccc(C3CCC(c4cnc([C@@H]5CCCN5C(=O)[C@@H](NC(=O)OC)C(C)C)[nH]4)CC3)cc2)[nH]1)C(C)C (single isomer, unassigned) [drawing 17]
- EC50 (HCV genotype 3a replicon; [5]): 2.3 nM
- EC50 (HCV genotype 6a replicon; [6]): 0.5 nM
- EC50 (HCV genotype 2a replicon; [7]): 9 nM
- EC50 (HCV genotype 2b replicon; [8]): 0.4 nM
- EC50 (HCV genotype 5a replicon): 0.08 nM
- EC50 (HCV genotype 1a replicon; [9]): 0.71 nM
- EC50 (HCV genotype 4a replicon; [10]): 0.04 nM
- EC50 (HCV genotype 1b replicon; [11]): 0.06 nM

SMILES: COC(=O)N[C@H](C(=O)N1CCC[C@H]1c1nc2cc([C@H]3CC[C@H](c4ccc5[nH]c([C@@H]6CCCN6C(=O)[C@@H](NC(=O)OC)C(C)C)nc5c4)N3c3cc(F)c(N4CCC(c5ccccc5)CC4)c(F)c3)ccc2[nH]1)C(C)C [Example 5.1, methyl{(2S)-1-[(2S)-2-{5-[(2R,5R)-1-[3,5-difluoro-4-(4-phenylpiperidin-1-yl)phenyl]-5-{2-[(2S)-1-{(2S)-2-[(methoxycarbonyl)amino]-3-methylbutanoyl}pyrrolidin-2-yl]-1H-benzimidazol-5-yl}pyrrolidin-2-yl]-1H-benzimidazol-2-yl}pyrrolidin-1-yl]-3-methyl-1-oxobutan-2-yl}carbamate]
- EC50 (HCV genotype 3a replicon; Hepatitis C virus, read-out: EC50 (nM, in the absence of HP) 3a, absence of human plasma, Table 5): ≤ 0.05 nM
- EC50 (HCV genotype 2a replicon; Hepatitis C virus, absence of human plasma, Table 5, read-out: EC50 (nM, in the absence of HP) 2a): ≤ 0.05 nM
- EC50 values, fold less than those of Example 4.25 [3]: at least 50 fold
- EC50 (HCV genotype 2b replicon; Hepatitis C virus, absence of human plasma, Table 5, read-out: EC50 (nM, in the absence of HP) 2b): ≤ 0.05 nM
- EC50 (HCV genotype 1a replicon; Hepatitis C virus, 40% human plasma, Table 5, read-out: EC50 (nM, in the presence of 40% HP) 1a): 0.1 nM
- EC50 (HCV genotype 4a replicon; Hepatitis C virus, absence of human plasma, Table 5, read-out: EC50 (nM, in the absence of HP) 4a): ≤ 0.05 nM
- EC50 fold less than that of Example 37 of US 2010/0317568 against the 1b Y93H variant [4]: at least 10 fold
- AUC value, fold greater than that of Example 2.9 ([2]; versus Example 2.9): about 30 fold
- EC50 (HCV genotype 1b replicon; Hepatitis C virus, 40% human plasma, Table 5, read-out: EC50 (nM, in the presence of 40% HP) 1b): 0.2 nM
